According to the NIST ThermoML archive (doi:10.1016/j.jct.2018.12.037):
Numbers after ± are expanded uncertainties.

Key:
[1] = xn = mol fraction of the nth substance listed; settings: 100 kPa, Liquid, Vibrating tube method, x1 = 0.52
[2] = refractive index (Na D-line) (dimensionless); xn = mol fraction of the nth substance listed; settings: 293.15 K; 100 kPa; Liquid; Standard Abbe refractometry; x1 = 0.52

C[C@@H]1CC[C@H](C)O1 [cis-2,5-dimethyltetrahydrofuran] + C[C@@H]1CC[C@@H](C)O1
[1]
Settings | mass density [kg/m3]
273.15 K | 848.22 ± 2.3
283.15 K | 838.53 ± 2.3
293.15 K | 828.71 ± 2.3
298.15 K | 823.89 ± 2.3
303.15 K | 818.91 ± 2.3

Settings | refractive index
[2] | 1.4043 ± 0.0004
